# Key:
# [1] = Compatibility in mice after i.v. administration, 7-day observation; settings: mouse, in vivo, iv, 7 days observation, > if all animals tolerated the dose, < if all died
# Method: (§1) Determination of Compatibility and Relaxivity of the Compounds According to the Invention
# The compatibility was examined preliminarily in mice (NMRI, Schering SPF, female, about 25 g). 0.5 mmol/kg of the substance in each case was administered intravenously to a mouse. The animal died, the dose was halved and correspondingly moved, otherwise the corresponding dose was administered to 2 additional mice. The period of observation was 7 days. The compatibility is indicated with > if all animals tolerated the corresponding dose, with < if all died.
# [2] = Relaxivity on relaxometer (minispec pc120; 20 MHz; 40° C.); type: physicochemical; settings: dist. water, pH 7.4, 20 MHz, 0-1 mmol/l
# Method: as §1
# To determine the relaxivity, the relaxation times of the substances were measured in 4 different concentrations (0-1 mmol/l; dissolved in dist. water; pH 7.4) on a relaxometer (minispec pc120; 20 MHz; 40° C.). The calculation was performed from:
# Δ(1/T1,2 -1/T1,2 blank value)/Δconc.=R1,2
# [3] = tested on: implanted tumor and lymph nodes; assay: MR-imaging of VX-2 tumor-bearing rabbits: implanted tumor and lymph nodes; type: in vivo, rabbit; settings: 0.1 mmol/kg i.v.
# Description: (§2) MR-Imaging Experiment of Tumor-bearing (VX-2 Carcinoma) Rabbits
# (§3) Siemens magnetom® (1.5 tesla; 64 MHz), T1 -accentuated spin-echo technique: TR : 350 ms, TE : 15 ms. slice orientation: coronary, slice thickness: 3 mm, number of averages: 4 per layer, field of view: 150 mm, matrix: 256^2, 4-6 layers, 1 echo per imaging sequence.
# (§4) Hare rabbit, Wulf, female,=4 kg of body weight (KGW) [n=3].
# (§5) Carcinoma (VX-2), implanted intramuscularly about 3 weeks before the beginning of the test.
# (§6) 0.05 and 0.1 mmol/kg of body weight i.v.
# [4] = tested on: muscle; assay: MR-imaging of VX-2 tumor-bearing rabbits: muscle; type: in vivo, rabbit; settings: 0.1 mmol/kg i.v.
# Description: as §2, §3, §4, §5, §6
# [5] = tested on: VX-2 carcinoma; assay: MR-imaging of VX-2 tumor-bearing rabbits: VX-2 carcinoma; type: in vivo, rabbit; settings: 0.1 mmol/kg i.v.
# Description: as §2, §3, §4, §5, §6
# [6] = tested on: lymph nodes (iliacal); assay: MR-imaging of VX-2 tumor-bearing rabbits: lymph nodes (iliacal); type: in vivo, rabbit; settings: 0.1 mmol/kg i.v.
# Description: as §2, §3, §4, §5, §6
# [7] = tested on: lymph node metastasis; assay: MR-imaging of VX-2 tumor-bearing rabbits: lymph node metastasis; type: in vivo, rabbit; settings: 0.1 mmol/kg i.v.
# Description: as §2, §3, §4, §5, §6
# [8] = 0 min p.i. (precontrast set to 1)
compound,measurement,setting,value
"O=C(O)COc1cccc(-c2c3nc(c(-c4cccc(OCC(=O)O)c4)c4ccc([nH]4)c(-c4cccc(OCC(=O)O)c4)c4nc(c(-c5cccc(OCC(=O)O)c5)c5ccc2[nH]5)C=C4)C=C3)c1.[Cl-].[Cl-].[Cl-].[Mn+3] [Example 2c, Manganese(III)-{5,10,15,20-tetrakis-[3-(carboxymethoxy)-phenyl]-porphyrin}-chloride]",MTD at 168 h,[1],> 500 µmol/kg
same,Relaxivity R1,[2],13 I/mmol/s
CC(=O)[O-].O=C([O-])c1cccc(-c2c3nc(c(-c4cccc(C(=O)[O-])c4)c4ccc([nH]4)c(-c4cccc(C(=O)[O-])c4)c4nc(c(-c5cccc(C(=O)[O-])c5)c5ccc2[nH]5)C=C4)C=C3)c1.[Mn+3] [Example 4 from EP 0336 879 A1],Relaxivity R1,[2],8.8 I/mmol/s
"CC(=O)[O-].CC(=O)[O-].CC(=O)[O-].CCOC(=O)COc1ccc(-c2c3nc(c(-c4ccc(OCC(=O)OCC)c(OCC(=O)OCC)c4)c4ccc([nH]4)c(-c4ccc(OCC(=O)OCC)c(OCC(=O)OCC)c4)c4nc(c(-c5ccc(OCC(=O)OCC)c(OCC(=O)OCC)c5)c5ccc2[nH]5)C=C4)C=C3)cc1OCC(=O)OCC.[Mn+3] [Example 4c, Manganese(III)-{5,10,15,20-tetrakis-[3,4-bis-(ethoxycarbonylmethoxy)-phenyl]-porphyrin}-acetate]",MTD at 168 h,[1],≥ 500 µmol/kg
same,Relaxivity R1,[2],11.6 I/mmol/s
CC(=O)[O-].COc1ccc(-c2c3nc(c(-c4ccc(OC)c(S(=O)(=O)[O-])c4)c4ccc([nH]4)c(-c4ccc(OC)c(S(=O)(=O)[O-])c4)c4nc(c(-c5ccc(OC)c(S(=O)(=O)[O-])c5)c5ccc2[nH]5)C=C4)C=C3)cc1S(=O)(=O)[O-].[Mn+3].[Na+].[Na+].[Na+].[Na+] [Example 17 from EP 0336 879 A1],Relaxivity R1,[2],9.2 I/mmol/s
Gd-DTPA,enhancement of tumors or metastases after about 60-90 minutes,[3],almost no enhancement of tumors or metastases was observed any longer
same,signal rise in implanted tumor and lymph nodes,[3]; lymph nodes on tumor-bearing and tumor-free side (iliacal and popliteal),"only in a brief, small signal rise"
same,time until approximately the starting intensity was reached again,"[3]; virtually all examined tissues, within about",60 to 90 min
same,"Relative signal intensity, muscle",[4]; [8],1.00
same,"Relative signal intensity, muscle",[4]; 2 min p.i.,1.20
same,"Relative signal intensity, muscle",[4]; 8 min p.i.,1.11
same,"Relative signal intensity, muscle",[4]; 17 min p.i.,1.10
same,"Relative signal intensity, muscle",[4]; 42 min p.i.,1.07
same,"Relative signal intensity, muscle",[4]; 52 min p.i.,1.02
same,"Relative signal intensity, muscle",[4]; 69 min p.i.,1.08
same,"Relative signal intensity, muscle",[4]; 24 hours p.i.,1.04
same,"Relative signal intensity, VX-2 carcinoma",[5]; [8],1.00
same,"Relative signal intensity, VX-2 carcinoma",[5]; 2 min p.i.,1.50
same,"Relative signal intensity, VX-2 carcinoma",[5]; 8 min p.i.,1.50
same,"Relative signal intensity, VX-2 carcinoma",[5]; 17 min p.i.,1.48
same,"Relative signal intensity, VX-2 carcinoma",[5]; 42 min p.i.,1.47
same,"Relative signal intensity, VX-2 carcinoma",[5]; 52 min p.i.,1.42
same,"Relative signal intensity, VX-2 carcinoma",[5]; 69 min p.i.,1.40
same,"Relative signal intensity, VX-2 carcinoma",[5]; 24 hours p.i.,1.11
same,"Relative signal intensity, lymph nodes (iliacal)",[6]; [8],1.00
same,"Relative signal intensity, lymph nodes (iliacal)",[6]; 2 min p.i.,1.50
same,"Relative signal intensity, lymph nodes (iliacal)",[6]; 8 min p.i.,1.32
same,"Relative signal intensity, lymph nodes (iliacal)",[6]; 17 min p.i.,1.20
same,"Relative signal intensity, lymph nodes (iliacal)",[6]; 42 min p.i.,1.24
same,"Relative signal intensity, lymph nodes (iliacal)",[6]; 52 min p.i.,1.17
same,"Relative signal intensity, lymph nodes (iliacal)",[6]; 69 min p.i.,1.11
same,"Relative signal intensity, lymph nodes (iliacal)",[6]; 24 hours p.i.,1.14
same,"Relative signal intensity, lymph node metastasis",[7]; [8],1.00
same,"Relative signal intensity, lymph node metastasis",[7]; 2 min p.i.,1.61
same,"Relative signal intensity, lymph node metastasis",[7]; 8 min p.i.,1.44
same,"Relative signal intensity, lymph node metastasis",[7]; 17 min p.i.,1.36
same,"Relative signal intensity, lymph node metastasis",[7]; 42 min p.i.,1.29
same,"Relative signal intensity, lymph node metastasis",[7]; 52 min p.i.,1.20
same,"Relative signal intensity, lymph node metastasis",[7]; 69 min p.i.,1.25
same,"Relative signal intensity, lymph node metastasis",[7]; 24 hours p.i.,0.97
"Manganese (III){5,10,15,20tetrakis-{[4carboxylic acid(2,3-dihydroxy-1-hydroxymethylpropyl)-amidephenylporphyrinacetate [Example 2 from EP 0336 879 A1]",Relaxivity R1,[2],8.6 I/mmol/s

# Source: patent US5674467A, “Meso-tetraphenylporphyrin complex compounds, process for their production and pharmaceutical agents containing the latter” (Institut fur Diagnostikforschung GmbH, priority 1993, dated 1997)
